Source: ChEMBL document CHEMBL1127814, “Preferred orientations in the binding of 4'-hydroxyacetanilide (acetaminophen) to cytochrome P450 1A1 and 2B1 isoforms as determined by 13C- and 15N-NMR relaxation studies” (J Med Chem, 1994)

How the values were obtained:
Cytochrome P450 1A1 = biological target: T1, Cytochrome P450 1A1 (Rattus norvegicus, UniProt P00185); experiment: Spectral dissociation constant for rat liver Cytochrome P450 1A1; format: ADME; settings: read-out: Ks
T1 sequence (P00185 whole entry): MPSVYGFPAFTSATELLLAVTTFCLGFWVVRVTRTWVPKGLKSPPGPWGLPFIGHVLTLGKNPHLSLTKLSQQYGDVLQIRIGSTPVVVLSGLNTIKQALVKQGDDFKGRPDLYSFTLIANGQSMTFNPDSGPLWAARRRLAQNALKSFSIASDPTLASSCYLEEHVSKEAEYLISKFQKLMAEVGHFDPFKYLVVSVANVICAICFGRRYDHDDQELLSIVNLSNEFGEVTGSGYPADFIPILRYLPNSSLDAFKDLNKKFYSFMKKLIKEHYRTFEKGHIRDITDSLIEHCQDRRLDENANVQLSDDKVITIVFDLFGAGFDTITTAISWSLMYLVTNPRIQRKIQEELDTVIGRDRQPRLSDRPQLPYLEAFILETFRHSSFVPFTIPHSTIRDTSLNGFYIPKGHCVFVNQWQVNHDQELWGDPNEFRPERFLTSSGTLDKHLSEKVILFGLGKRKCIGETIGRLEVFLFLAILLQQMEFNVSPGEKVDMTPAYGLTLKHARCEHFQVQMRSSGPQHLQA

Cytochrome P450 2B1 = biological target: T2, Cytochrome P450 2B1 (Rattus norvegicus, UniProt P00176); experiment: Spectral dissociation constant for rat liver Cytochrome P450 2B1; format: ADME; settings: read-out: Ks
T2 sequence (P00176 whole entry): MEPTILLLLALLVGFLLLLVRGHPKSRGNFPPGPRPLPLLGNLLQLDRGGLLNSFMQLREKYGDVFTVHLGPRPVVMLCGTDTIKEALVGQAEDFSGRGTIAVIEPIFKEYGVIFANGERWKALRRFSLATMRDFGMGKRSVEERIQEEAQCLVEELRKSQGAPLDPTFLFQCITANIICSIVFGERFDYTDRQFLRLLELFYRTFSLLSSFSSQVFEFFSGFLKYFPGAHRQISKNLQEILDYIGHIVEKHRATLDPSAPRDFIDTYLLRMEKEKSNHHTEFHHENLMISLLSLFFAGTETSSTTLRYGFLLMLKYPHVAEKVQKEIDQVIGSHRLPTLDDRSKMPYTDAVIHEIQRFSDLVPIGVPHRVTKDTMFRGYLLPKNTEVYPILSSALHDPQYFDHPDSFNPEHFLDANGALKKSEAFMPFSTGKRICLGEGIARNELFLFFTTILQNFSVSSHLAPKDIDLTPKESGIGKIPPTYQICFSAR

## CC(=O)Nc1ccc(O)cc1 [ACETAMINOPHEN]
Cytochrome P450 1A1
  Kd: 870 µM
Cytochrome P450 2B1
  Kd: 800 µM
